Test results as given in patent publication US20070172825A1, “Methods and kits for identifying functions and binding substances of gene products” (HUMAN METABOLOME TECHNOLOGIES, INC., priority 2004, published 2007).

Test system: Escherichia coli gene product (lactate dehydrogenase)
Experiment: Reaction of purified gene product with 19-substrate compound cocktail, changes detected by CE/MS
Type: biochemical
Conditions: 1 μg purified protein added to cocktail (100 μM each substrate, NADH 500 μM), 37° C., 30 min; control without gene product; FIG. 2
Experimental: As the compound cocktail, 100 μl of HEPES buffer (5 mM, pH7.5) comprising 19 different substrate compounds involved in the glycolytic system, TCA cycle, or pentose phosphate cycle (fructose-1,6-phosphate (F16P), 6-phosphogluconate (6PG), 2,3-phosphoglycerate (23DPG), glucose-1-phosphate (G1P), fructose-6-phosphate (F6P), glucose-6-phosphate (G6P), ribulose-5-phosphate (Ribulose5P), ribose-5-phosphate (Ribose5P), erythrose-4-phosphate (Erythrose4P), isocitric acid (iso-Citrate), citric acid (Citrate), 2-phosphoglycerate, 3-phosphoglycerate (2PG/3PG), cis-aconitic acid (cis-Aconitate), phosphoenolpyruvic acid (PEP), succinic acid (Succinate), fumaric acid (Fumarate), lactic acid (Lactate), and pyruvic acid (Pyruvate)) (100 μM each; the final concentration is shown in all parentheses hereafter), supplemented with NADH (500 μM), MgSO4 (10 mM), and KCl (10 mM) was used. […]
One μg of the purified protein was added to the above compound cocktail and incubated at 37° C. for 30 min. Immediately thereafter, the protein was removed by ultrafiltration and the reaction mixture was analyzed using a capillary electrophoresis-mass spectrometer (CE/MS). […]
CE/MS was used according to the instructions described in documents (Japanese Patent No. 3341765 and Soga T, et al., Anal. Chem., 74, 2233-2239 (2002)). […] Each compound can be detected as its own mass number (m/z).

| Compound | change in concentration of the compound in the cocktail compared with the control experiment |
| --- | --- |
| CC(O)C(=O)O (centres unmarked) [lactic acid] | increase |
| CC(=O)C(=O)O [pyruvic acid] | significant decrease |
